# Source: US10709784B2, “Metal chelating compositions and methods for controlling the growth or activities of a living cell or organism” (CHELATION PARTNERS INCORPORATED, priority 2011, dated 2020)
# Where two headings read alike, the source gives them in different places.
# Columns and labels:
# Assay type in all cases: cell-based
# [1] = test system: Candida albicans ATCC 10231; assay: Growth with chelating materials of different molecular weight, 84 hours; conditions: 30° C., defined medium without added iron, FIG. 8
# Procedure: Candida albicans ATCC 10231 was tested for its sensitivities to: the medical chelator deferiprone (#1 in the graph of FIG. 8) (a product of Apotex Pharmaceuticals); the precursor chemicals used for the preparation of soluble chelating compositions of the present invention, including 3-hydroxy-2-methyl-4-pyrone (#2 in the graph of FIG. 8), AHMP as from Example 1 (#3 in the graph of FIG. 8) and MAHMP as from Example 2 (#4 in the graph of FIG. 8) and also the soluble chelating composition as from Example 4 (#5 in the graph of FIG. 8). The yeast was grown in defined medium as for Example 18 with no additional added iron (i.e., the only but adequate Fe available for the yeast was contributed from being present along with the other added medium components). Growth of the yeast in the defined media with added test chelating materials was compared to control samples that had not received any of the chelating materials following 84 hours of incubation and growth at 30° C. […] These chelators being internalized by the yeast were incapable of restricting iron supply to the yeast cells. […] Thus, low molecular weight chelators such as deferiprone and similar compounds permitted growth while the soluble chelating composition that contained functional groups similar to deferiprone but was a molecular weight higher than 1500 Daltons restricted growth, eventhough the various compounds tested were each capable of binding iron through their pyridinone functionality.
# [2] = test system: Staphylococcus aureus ATCC #29213; assay: Antibiotic MIC in untreated versus iron-extracted RPMI
# [3] = test system: Pseudomonas aeruginosa strain PA01; assay: as above
# Source text: (§1) Test microorganisms included Pseudomonas aeruginosa strain PA01, Escherichia coli ATCC #25922 and Staphylococcus aureus ATCC #29213.
# [4] = test system: Escherichia coli ATCC #25922; assay: as above
# Source text: as §1
# [5] = test system: Candida albicans ATCC 10231; assay: Fluorocytosine MIC (80% growth inhibition) with soluble chelator
# Procedure: Candida albicans ATCC 10231, yeast cells, as grown in defined medium with no additional added Fe as in example 18 and example 19, were tested in the same media for their sensitivities to 5-fluorocytosine, as a proto-typical example of the class of […] that are commonly used to control fungal and cancer cell growth in humans and with fluorocytosine plus the soluble chelating composition, as prepared in example 4.
# [6] = test system: antibiotic resistant strains of Staphylococcus aureus; assay: NCCLS MIC antibiotic sensitivity with added chelator; conditions: for MIC penicillin: Strain WBG8701
# Procedure: Sensitive or antibiotic resistant strains of Staphylococcus aureus (S. aureus) were grown on blood agar plates overnight at 37° C. Four to six individual colonies of each strain were harvested into Mueller-Hinton broth (MHB) and incubated at 37° C. until they reached an optical density equal to or exceeding a 0.5 McFarland standard. The culture was diluted with MHB to equal 0.5 McFarland standard. Dilutions (10^−1) of these standards were used for inocula. Various stains of antibiotic resistant Staphylococcus aureus were used for these tests as shown in the results below. It should be appreciated that growing the bacterial strains on blood agar and then in MHB ensured the inoculum was not restricted for iron prior to the test but rather the bacterial cells were with ample endogenous iron supply.
# A range of two-fold dilutions of a test antibiotic was prepared in MHB. […] Soluble and insoluble chelating compositions, as prepared in Example 6 or Example 5, or the free iron chelating agent deferiprone were added to the antibiotic containing tubes at known concentrations of iron binding capacity (referred to as iron binding equivalents) to allow direct comparison of the different compositions or free chelator. The final volume per tube was 500 μl. Bacterial inoculum, 25 μl of the 10^−1 dilutions of the appropriate S. aureus strain was added to each tube. The tubes were incubated at an angle on a reciprocating shaker at 37° C. overnight and results were scored as growth based on turbidity or no growth (lack of turbidity). The Minimum Inhibitory Concentration (MIC) for the antibiotic was determined from the growth results.
# A series of tests was set up as in Example 15 with various antibiotic anti-cellular agents. The clinically isolated strains were obtained from the culture collection of Warren Grubb, Curtin University, Perth, Australia.
# A series of antibiotic sensitivity tests was set up as in example 16 utilizing the soluble chelating compositions as prepared in Example 6. Separate test series with different clinically isolated Staphylococcus aureus strains, as obtained from the culture collection of Warren Grubb, Curtin University, Perth, Australia, and various antibiotics were employed but for each series a control test comprising addition of iron sufficient to supply two times the chelating capacity of the supplied chelating composition was also included.
# [7] = test system: Candida albicans ATCC 10231; assay: Nystatin MIC (80% growth inhibition) with soluble chelator
# Procedure: Candida albicans ATCC 10231, yeast cells, as grown in defined medium with no additional added Fe as in example 18 and example 19, were tested in the same media for their sensitivities to nystatin, an antifungal agent as proto-typical of the class of polyene antibiotics that are commonly used to control fungal growth and pathogenesis in humans and with nystatin plus the soluble chelating composition, as prepared in example 4. Nystatin as typical of the polyene class of antifungal agents causes membrane damage as part of its mechanism of anti-fungal activity.
# [8] = test system: Candida albicans ATCC 10231; assay: Preservative agent MIC (80% inhibition) challenge test with soluble chelator
# [9] = Staphylococcus aureus, ATCC29213, Treated RPMI + 0.004 μM Fe, read-out: MIC
# [10] = Staphylococcus aureus, ATCC29213, Untreated RPMI 0.11 μM Fe, read-out: MIC
# [11] = Pseudomonas aeruginosa, PA01, Treated RPMI + 0.09 μM Fe, read-out: MIC
# [12] = Pseudomonas aeruginosa, PA01, Untreated RPMI 0.11 μM Fe, read-out: MIC
# [13] = Escherichia coli, ATCC25922, Treated RPMI + 0.009 μM Fe, read-out: MIC
# [14] = Escherichia coli, ATCC25922, Untreated RPMI 0.11 μM Fe, read-out: MIC
# [15] = strain WBG525, No Chelator Added (control)
# [16] = strain WBG525, plus Soluble Chelating Composition (Example 6) 1.1 mM Fe binding equivalents, * slight growth <5% of control
# [17] = strain WBG525, plus Soluble Chelating Composition (Example 6) 2.2 mM Fe binding equivalents, * slight growth <5% of control
# [18] = strain WBG4340, No Chelator Added (control)
molecule,measurement,setting,value
Cc1occc(=O)c1O [3-hydroxy-2-methyl-4-pyrone],growth of the yeast compared to control,[1],did not substantially restrict growth
"Cc1c(O)c(=O)ccn1CCN [AHMP, 1-aminoethyl-3-hydroxy-2-methyl-4(1H)-pyridinone]",growth of the yeast compared to control,[1],did not substantially restrict growth
CC1(C)S[C@@H]2[C@H](NC(=O)[C@H](N)c3ccccc3)C(=O)N2[C@H]1C(=O)O [Ampicillin],MIC,[2]; [9],0.25 µg/mL
same,MIC,[2]; [10],1 µg/mL
same,MIC,[3]; [11],> 512 µg/mL
same,MIC,[3]; [12],> 512 µg/mL
same,MIC,[4]; [13],4 µg/mL
same,MIC,[4]; [14],4 µg/mL
O=C(O)c1cn(C2CC2)c2cc(N3CCNCC3)c(F)cc2c1=O [Ciprofloxacin],MIC,[2]; [9],0.25 µg/mL
same,MIC,[2]; [10],0.5 µg/mL
same,MIC,[3]; [11],1 µg/mL
same,MIC,[3]; [12],4 µg/mL
same,MIC,[4]; [13],0.008 µg/mL
same,MIC,[4]; [14],0.0078 µg/mL
CC[C@H]1OC(=O)[C@H](C)[C@@H](O[C@H]2C[C@@](C)(OC)[C@@H](O)[C@H](C)O2)[C@H](C)[C@@H](O[C@@H]2O[C@H](C)C[C@H](N(C)C)[C@H]2O)[C@](C)(OC)C[C@@H](C)C(=O)[C@H](C)[C@@H](O)[C@]1(C)O [Clarithromycin],MIC,[2]; [10],1 µg/mL
same,MIC,[3]; [11],> 512 µg/mL
same,MIC,[3]; [12],> 512 µg/mL
same,MIC,[4]; [13],16 µg/mL
same,MIC,[4]; [14],> 512 µg/mL
"Nc1nc(=O)[nH]cc1F [Fluorocytosine, 5-fluorocytosine]",MIC,"[5]; ATCC10231, 96 h, Fluorocytosine alone, 4 d",0.025 µg/mL
same,MIC,"[5]; ATCC10231, 96 h, plus 25 μg/ml soluble chelator (example 4), 4 d",< 0.003 µg/mL
same,MIC,"[5]; ATCC10231, 240 h, Fluorocytosine alone, 10 d",0.05 µg/mL
same,MIC,"[5]; ATCC10231, 240 h, plus 25 μg/ml soluble chelator (example 4), 10 d",0.012 µg/mL
same,MIC,"[5]; ATCC10231, 504 h, Fluorocytosine alone, 21 d",0.05 µg/mL
same,MIC,"[5]; ATCC10231, 504 h, plus 25 μg/ml soluble chelator (example 4), 21 d",0.012 µg/mL
CC(=O)O[C@H]1C[C@@]2(C)[C@@H](C[C@@H](O)[C@H]3[C@@]4(C)CC[C@@H](O)[C@@H](C)[C@@H]4CC[C@@]32C)/C1=C(\CCC=C(C)C)C(=O)O [Fusidic acid],MIC,[2]; [9],0.0625 µg/mL
same,MIC,[2]; [10],0.25 µg/mL
same,MIC,[3]; [11],> 512 µg/mL
same,MIC,[3]; [12],> 512 µg/mL
same,MIC,[4]; [13],> 512 µg/mL
same,MIC,[4]; [14],> 512 µg/mL
NC[C@H]1O[C@H](O[C@H]2[C@H](O)[C@@H](O[C@H]3O[C@H](CO)[C@@H](O)[C@H](N)[C@H]3O)[C@H](N)C[C@@H]2N)[C@H](O)[C@@H](O)[C@@H]1O [Kanamycin],MIC (100% inhibition) antibiotic,[6]; [15],320 µg/mL
same,MIC (100% inhibition) antibiotic,[6]; [16],20 µg/mL
same,MIC (100% inhibition) antibiotic,[6]; [17],20 µg/mL
"C=C(C)C(=O)NCCn1ccc(=O)c(O)c1C [MAHMP, 3-hydroxy-1-(β-methacrylamidoethyl)-2-methyl-4(1H)-pyridinone]",growth of the yeast compared to control,[1],did not substantially restrict growth
C/C(=C\C(=O)OCCCCCCCCC(=O)O)C[C@@H]1OC[C@H](C[C@@H]2O[C@H]2[C@@H](C)[C@H](C)O)[C@@H](O)[C@H]1O [Mupirocin],MIC,[2]; [9],0.0156 µg/mL
same,MIC,[2]; [10],0.0625 µg/mL
same,MIC,[3]; [11],> 512 µg/mL
same,MIC,[3]; [12],> 512 µg/mL
same,MIC,[4]; [13],64 µg/mL
same,MIC,[4]; [14],128 µg/mL
C[C@@H]1[C@H](O)[C@@H](C)/C=C/C=C/CC/C=C/C=C/C=C/C=C/C(O[C@H]2O[C@H](C)[C@@H](O)[C@H](N)[C@@H]2O)CC2O[C@](O)(CC(O)C(O)CCC(O)CC(O)CC(O)CC(=O)O[C@H]1C)CC(O)C2C(=O)O (stereo partly drawn) [Nystatin],Nystatin MIC,"[7]; Nystatin alone, 4 d",0.23 µg/mL
same,Nystatin MIC,"[7]; Nystatin alone, 10 d",3.8 µg/mL
same,Nystatin MIC,"[7]; Nystatin alone, 21 d",7.5 µg/mL
same,Nystatin MIC,"[7]; plus 25 μg/ml soluble chelator (example 4), 4 d",<0.12 µg/mL
same,Nystatin MIC,"[7]; plus 25 μg/ml soluble chelator (example 4), 10 d",0.12 µg/mL
same,Nystatin MIC,"[7]; plus 25 μg/ml soluble chelator (example 4), 21 d",0.47 µg/mL
"COC(=O)c1ccc(O)cc1 [Paraben, methyl paraben]",MIC,"[8]; ATCC10231, 48 h, read-out: Sorbate or Paraben MIC, preservative alone, 2 days",500 µg/mL
same,MIC,"[8]; ATCC10231, 240 h, read-out: Sorbate or Paraben MIC, preservative alone, 10 days",1000 µg/mL
[H]/N=C(/N)N[C@H]1[C@H](O)[C@@H](O)[C@H](O[C@@H]2O[C@@H](C)[C@](O)(C=O)[C@H]2O[C@@H]2O[C@@H](CO)[C@H](O)[C@@H](O)[C@@H]2NC)[C@@H](N/C(N)=N\[H])[C@@H]1O [Streptomycin],MIC,"[6]; Staphylococcus aureus, strain WBG525, no chelator added (control), read-out: MIC Streptomycin",> 640 µg/mL
same,MIC (100% inhibition) antibiotic,[6]; [15],>640 µg/mL
same,MIC (100% inhibition) antibiotic,[6]; [16],640* μg/ml
same,MIC (100% inhibition) antibiotic,[6]; [17],160* μg/ml
CN(C)[C@@H]1C(O)=C(C(N)=O)C(=O)[C@@]2(O)C(O)=C3C(=O)c4c(O)cccc4[C@@](C)(O)[C@H]3C[C@@H]12 [Tetracycline],MIC (100% inhibition) antibiotic,[6]; [18],40 µg/mL
Gentamcin,MIC (100% inhibition) antibiotic,"[6]; strain WBG1320, No Chelator Added (control), * slight growth <5% of control",320* μg/ml
same,MIC (100% inhibition) antibiotic,"[6]; strain WBG1320, plus Soluble Chelating Composition (Example 6) 1.1 mM, * slight growth <5% of control",40* μg/ml
same,MIC (100% inhibition) antibiotic,"[6]; strain WBG1320, plus Soluble Chelating Composition (Example 6) 2.2 mM, * slight growth <5% of control",20* μg/ml
Neomycin,MIC (100% inhibition) antibiotic,[6]; [18],1280 µg/mL
same,MIC (100% inhibition) antibiotic,"[6]; strain WBG4340, plus Soluble Chelating Composition (Example 6) 1.1 mM",160 µg/mL
same,MIC (100% inhibition) antibiotic,"[6]; strain WBG4340, plus Soluble Chelating Composition (Example 6) 2.2 mM",80 µg/mL
same,MIC,[2]; Treated RPMI + 0.004 μM Fe,1 µg/mL
same,MIC,[2]; Untreated RPMI 0.11 μM Fe,1 µg/mL
same,MIC,[3]; Treated RPMI + 0.09 μM Fe,16 µg/mL
same,MIC,[3]; Untreated RPMI 0.11 μM Fe,32 µg/mL
same,MIC,[4]; Treated RPMI + 0.009 μM Fe,2 µg/mL
same,MIC,[4]; Untreated RPMI 0.11 μM Fe,2 µg/mL
penicillin,MIC penicillin,[6]; no chelator,640 µg/mL
same,MIC penicillin,[6]; plus 4.4 mM Fe binding equivalents soluble chelating composition (example 6),320 µg/mL
same,MIC penicillin,[6]; plus iron-loaded chelating composition,did not lower the MIC
